# Patent US20230256017A1, “METHODS OF MAKING CHIMERIC ANTIGEN RECEPTOR-EXPRESSING CELLS” (Novartis AG, priority 2020, published 2023)
# Legend:
# Format in all cases: cell-based
# T cells [1] = assay: ARM-BCMA CAR expression kinetics in vitro with or without AZT (FACS); conditions: 30 µM and 100 µM doses
# Experimental: In contrast to TM which measures lentiviral integration of the CAR transgene after 8-9 days, in the ARM process, the lentiviral transgene may not be fully integrated and truly expressed within 24h post lentiviral addition, as lentiviral pseudotransduction could occur (Haas DL, et al., (2000) Mol Ther; 2(1):71-80; Galla M, et al., (2004) Mol Cell; 16(2):309-15). […] Flow cytometry (FACS) analyses were performed to detect CAR surface expression at 24 h, 48 h, 72 h, 96 h and 168 h post T cell activation and transduction with the lentiviral vector. In some cases, ARM-BCMA CAR and an aliquot of this product were frozen down immediately upon harvest for additional characterization in other assays.
# T cells [2] = assay: T cell expansion with cytokines after TCR stimulation (cell surface staining)
# Experimental: Previously frozen T cells were thawed and contacted with αCD3/αCD28 dynal beads (cell to bead ratio of 1 to 3) in the presence of indicated cytokines at day 0. From day 3, twice more T cell growth media (RPMI1640, 10% FBS, 2 mM L-glutamin, 100 µM non-essential amino acids, 1 mM sodium pyruvate, 10 mM Hepes, 55 µM β-mercaptoethanol, 10% FBS, and 100 U/ml of penicillin-streptomycin) was added to the plate with indicated cytokines (without cytokine, rhIL2 (50 IU/ml, Novartis), IL6 (10 ng/ml, R&D systems), IL7 (10 ng/ml, Peprotech), IL15 (10 ng/ml, Peprotech), and IL21 (10 ng/ml, Peprotech)) at day 3, 5, 6, 9, 12, 15, and 18.
# Cells were harvested at indicated time points and then stained with live/dead dye (eFluro780, eBioscience), CD3 (BioLegend, clone#: OKT3), CD4 (BioLegend, clone#: OKT4), CD8 (BD Bioscience, clone#: RPA-T8), CD45RO (BioLegend, clone#: UCHL1), CCR7 (BioLegend, clone#: G043H7), CD27 (BD Horizon, clone#: L128), CD127 (BioLegend, clone#: A019D5), CD57 (BioLegend, clone#: HCD57), CD126 (BioLegend, clon#: UV4), and CD130 (R&D Systems, clone#: 28126) antibodies. The cells were acquired by FACS Fortessa and then FlowJo program was used for data analysis.
# T cells [3] = assay: Cytokine process: T cell differentiation status and CAR transduction by flow cytometry; conditions: purified T cells incubated with cytokine, no other activation stimulus
# Experimental: The cells were immunophenotyped for T cell differentiation status and transduction of the CAR was assessed using flow cytometry. The cells were washed, viability dye was added followed by the antibody cocktail (Table 20), and the plates were incubated for 20 minutes at room temperature. After the incubation, the cells were washed twice and fixed prior to being analyzed on the BD fortessa.
compound,measurement,setting,value
"Cc1cn([C@H]2C[C@H](N=[N+]=[N-])[C@@H](CO)O2)c(=O)[nH]c1=O [AZT, 3′-azido-3′-deoxythymidine]",inhibition of CAR expression,T cells [1],effectively inhibit CAR expression
IL15: cytokine present during activation of T cells with αCD3αCD28 beads,expansion of IL6Rβ expressing cells,T cells [2]; αCD3/αCD28 beads plus cytokine,enhanced expansion of IL6Rβ expressing cells
same,T cell expansion,T cells [2]; αCD3/αCD28 beads plus indicated cytokine,"enhanced T cell expansion, with IL15 showing the greatest enhancement"
IL-15: cytokine used in T cell culture,maintenance of self-renewing T cells (CD45RO-CCR7+),T cells [3],maintained self-renewing T cells in vitro
